Patent US20050080054A1, “Treating androgen decline in aging male (ADAM)-associated conditions with SARMS” (priority 2002, published 2005)

How the values were obtained:
Format in all cases: in vivo, rat
[1] = Plasma testosterone levels in male rats of varying hormonal status; settings: 0.5 mg/day; for Plasma testosterone levels: osmotic pump, 14 days, n = 5
From the text: (§1) Compound VI and Compound VII were synthesized and characterized in the laboratory of Dr. Duane Miller at the University of Tennessee, Memphis, Tenn. Male Sprague-Dawley rats were purchased from Harlan Biosciences (Indianapolis, Ind.). The animals were maintained on a 12-h cycle of light and dark with food and water available ad libitum. All animal studies were reviewed and approved by the Animal Care and Use Committee of The Ohio State University, and conformed to the Principles of Laboratory Animal Care (NIH publication #85-23, revised 1985). Immature male Sprague-Dawley rats weighing 187 to 214 g were randomly distributed into 9 groups of 5 animals. One day before the initiation of drug treatment, groups 4 through 6 and groups 7 through 9 received unilateral or bilateral orchidectomy, respectively, via a midline scrotal incision. […] All drugs given to animals were freshly prepared as solutions in polyethylene glycol 300 (PEG 300). Groups 4 and 7 received treatment with vehicle alone (i.e., PEG 300). Animals in groups 3, 6, and 9 received testosterone propionate (TP, 0.5 mg/day) via implantation of subdermal osmotic pumps (Model 2002, Durect Corporation, Palo Alto, Calif.). Animals in groups 2, 5, and 8 received Compound VI or Compound VII (0.5 mg/day) via implantation of subdermal osmotic pumps. After 14 days of drug treatment, rats were weighed, anesthetized, and sacrificed. Blood samples were collected by venipuncture of the abdominal aorta. Plasma samples were analyzed for testosterone, FSH, LH and osteocalcin. Testosterone concentrations were measured by AniLytics Inc. (Gaithersburg, Md.). FSH and LH levels were measured by the National Hormone and Peptide Program (Dr. A F Parlow, UCLA, CA). Plasma osteocalcin levels were determined using a commercially available rat osteocalcin EIA kit from Biomedical Technologies Inc. (Stoughton, Mass.). The ventral prostates, seminal vesicles, and levator ani muscle were removed and weighed. Osmotic pumps were also removed from animals to check for correct pump operation. The weights of all organs were normalized to body weight, and analyzed for any statistically significant differences between groups using single-factor ANOVA with the alpha value set a priori at p<0.05. The weights of prostates and seminal vesicles were used as indices for evaluation of androgenic activity, and the levator ani muscle weight was used to evaluate the anabolic activity. Statistical analyses of parameters from complete blood count or serum chemical profiling, wherever applicable, were performed by single-factor ANOVA with the alpha value set a priori at p<0.05.

[2] = Plasma FSH levels in male rats of varying hormonal status; settings: 0.5 mg/day; for Plasma FSH levels: 14 days, n = 5
From the text: as §1

[3] = Plasma LH levels in male rats of varying hormonal status; settings: 0.5 mg/day; for Plasma LH levels: 14 days, n = 5
From the text: as §1

[4] = Plasma osteocalcin levels in male rats of varying hormonal status; settings: 0.5 mg/day; for Plasma osteocalcin levels: 14 days, n = 5
From the text: as §1

[5] = system: androgen-responsive tissues (prostate, seminal vesicles, levator ani muscle); assay: Androgenic and anabolic activity: weight of androgen-responsive tissues in intact, hemi-orchidectomized and castrated rats; settings: 0.5 mg/day, 14 days, n = 5
Protocol: FIG. 3: Androgenic and Anabolic activity of Compound VI and Compound VII in rats. Male rats with normal testicular function (no surgical manipulation) were left untreated (Intact), treated with compound VI (0.5 mg/day), compound VII (0.5 mg/day) or testosterone proprionate (TP, 0.5 mg/day), and the weight of androgen-responsive tissues (prostate—FIG. 3A, semimal vesicles—FIG. 3B, and levator ani muscle—FIG. 3C) was determined.
(§2) FIG. 4: Androgenic and Anabolic activity of Compound VI and Compound VII in rats. Male rats received unilateral orchidectomy (Hemi-orchidectomized) and were left untreated (Intact), treated with vehicle alone (PEG 300), Compound VI (0.5 mg/day), Compound VII (0.5 mg/day), or testosterone proprionate (TP, 0.5 mg/day), and the weight of androgen-responsive tissues (prostate—FIG. 4A, semimal vesicles—FIG. 4B, and levator ani muscle—FIG. 4C) was determined.
as §2, with “5:” for “4:”, “bilateral” for “unilateral”, “(Castrated)” for “(Hemi-orchidectomized)”, “5A,” for “4A,”, “5B,” for “4B,”, “5C)” for “4C)”
as §1

[6] = system: androgen-responsive tissues (prostate, seminal vesicles, levator ani muscle); assay: Dose response of androgenic and anabolic activities (Emax, ED50) compared to TP; settings: for Emax (% of Intact Control): doses 0.1-1.0 mg/day; for Relative Afficacy / Relative Potency: relative to TP
Protocol: FIG. 6: Dose response Curves. Rats were left untreated, or treated with 0.1, 0.3, 0.5, 0.75 and 1.0 mg/day Compound VI, Compound VII or testosterone propionate (TP), and the weight of androgen-responsive tissues (prostate—FIG. 6A, semimal vesicles—FIG. 6B and levator ani muscle—FIG. 6C) was determined. The results are plotted as percentage of the intact control.
as §1

[7] = system: myosin heavy chain (MHC) IIb mRNA; assay: Myosin heavy chain (MHC) IIb mRNA expression in masseter muscle by RT-PCR; settings: masseter muscle of intact female rats; untreated control = 100%
From the text: MHC is the predominant protein in skeletal muscle encoded by a multigene family expressed in a tissue-specific and developmentally regulated manner [Adams et al 1999]. In steady state, mRNA expression usually parallels the pattern of MHC protein expression. Because transcription of MHC mRNA occurs in advance of MHC protein translation, and the increased sensitivity of RT-PCR compared to western blotting, rapid changes in mRNA expression can be detected and used to analyze the subtle dynamic effects of muscle anabolism [Wright et al 1997].
The masseter muscle dissected from untreated intact female rats was set as the control level (representing 100%) of MHC IIb expression (FIG. 7A). Intact female rats treated with androgens were evaluated against the untreated controls for the effect of treatment on MHC IIb from masseter.

[8] = system: female rats after ovariectomy; assay: Bone mineral content (DEXA) in female rats after ovariectomy
Protocol: One hundred ten female rats were assigned to one of eleven treatment groups. Groups 1-8 were ovariectomized on day one of the study. Groups 9-11 were intact animals. Groups 1-6 received Compound VI by daily subcutaneous injection at doses of 0.1, 0.3, 0.5, 0.75, 1.0, and 3 mg/day, respectively. Groups 7 and 11 received dihydrotestosterone (DHT) at a dose of 1 mg/day. Groups 8 and 9 were ovariectomized and intact control groups, respectively. Group 10 received Compound VI at a dose of 1.0 mg/day. All animals were treated for 120 days. Bone mineral content (BMC) was determined using dual energy x-ray absorptiometry (DEXA) on days 1, 30, 60, 90, and 120.

[9] = TP statement for castrated male rats

CCC(=O)O[C@H]1CC[C@H]2[C@@H]3CCC4=CC(=O)CC[C@]4(C)[C@H]3CC[C@]12C [TP, testosterone propionate, reference compound]
plasma testosterone levels versus controls ([1]; castrated male rats): higher plasma testosterone levels | Plasma testosterone levels ([1]; castrated male rats): 0.258 ± 0.103 ng/mL | Plasma testosterone levels ([1]; hemi-orchidectomized male rats): 2.366 ± 1.232 ng/mL | Plasma testosterone levels ([1]; intact male rats): 1.482 ± 0.416 ng/mL | effect on plasma FSH levels [2, 9]: significant decrease | Plasma FSH levels ([2]; castrated male rats): 58.0 ± 6.9 ng/mL | Plasma FSH levels ([2]; hemi-orchidectomized male rats): 17.2 ± 3.3 ng/mL | Plasma FSH levels ([2]; intact male rats): 11.4 ± 1.7 ng/mL | effect on plasma LH levels [3, 9]: significant decrease | Plasma LH levels ([3]; castrated male rats): 6.702 ± 1.513 ng/mL | Plasma LH levels ([3]; hemi-orchidectomized male rats): 0.124 ± 0.092 ng/mL | Plasma LH levels ([3]; intact male rats): 0.168 ± 0.173 ng/mL | effect on plasma osteocalcin levels ([4]; Compound VI statement for hemi-orchidectomized and castrated animals): no effect | Plasma osteocalcin levels ([4]; castrated male rats): 65.976 ± 11.213 ng/mL | Plasma osteocalcin levels ([4]; hemi-orchidectomized male rats): 77.236 ± 24.418 ng/mL | Plasma osteocalcin levels ([4]; intact male rats): 74.952 ± 15.399 ng/mL | Levator Ani weight ([5]; castrated rats): 87.27 ± 10.25 % of intact control | Prostate weight ([5]; castrated rats): 76.78 ± 10.43 % of intact control | Seminal Vesicle weight ([5]; castrated rats): 63.48 ± 17.05 % of intact control | Levator Ani weight ([5]; hemi-orchidectomized rats): 98.63 ± 10.47 % of intact control | Prostate weight ([5]; hemi-orchidectomized rats): 98.57 ± 7.98 % of intact control | Seminal Vesicle weight ([5]; hemi-orchidectomized rats): 114.19 ± 23.81 % of intact control | Levator Ani weight ([5]; intact rats): 95.61 ± 9.34 % of intact control | Prostate weight ([5]; intact rats): 97.45 ± 10.82 % of intact control | Seminal Vesicle weight ([5]; intact rats): 103.95 ± 13.23 % of intact control | ED50 ([6]; Anabolic, Levator Ani Muscle): 0.15 ± 0.03 mg/day | Emax (% of Intact Control) ([6]; Anabolic, Levator Ani Muscle): 104.2 ± 10.1 % of Intact Control | Relative Afficacy ([6]; Anabolic, Levator Ani Muscle): 1.00 | Relative Potency ([6]; Anabolic, Levator Ani Muscle): 1.00 | ED50 ([6]; Androgenic, Prostate): 0.13 ± 0.03 mg/day | Emax (% of Intact Control) ([6]; Androgenic, Prostate): 120.6 ± 13.4 % of Intact Control | Relative Afficacy ([6]; Androgenic, Prostate): 1.00 | Relative Potency ([6]; Androgenic, Prostate): 1.00 | ED50 ([6]; Androgenic, Seminal Vesicle): 0.12 ± 0.02 mg/day | Emax (% of Intact Control) ([6]; Androgenic, Seminal Vesicle): 70.0 ± 18.8 % of Intact Control | Relative Afficacy ([6]; Androgenic, Seminal Vesicle): 1.00 | Relative Potency ([6]; Androgenic, Seminal Vesicle): 1.00 | MHC type IIb transcription, of untreated control [7]: 133%

C[C@]12CCC(=O)C[C@@H]1CC[C@@H]1[C@@H]2CC[C@]2(C)[C@@H](O)CC[C@@H]12 [DHT, dihydrotestosterone, reference compound]
potency comparison Compound VI versus DHT ([8]; ovariectomized female rat bone model): less potent than Compound VI | increase in BMC ([8]; ovariectomized female rats, 1.0 mg/day, treated for 120 days (group 5; DHT 1 mg/day)): 15%

CC(=O)Nc1ccc(OC[C@](C)(O)C(=O)Nc2ccc([N+](=O)[O-])c(C(F)(F)F)c2)cc1 [GTx-017]
ED50 ([6]; Anabolic, Levator Ani Muscle): 0.14 ± 0.01 mg/day | Emax (% of Intact Control) ([6]; Anabolic, Levator Ani Muscle): 101.0 ± 1.0 % of Intact Control | Relative Afficacy ([6]; Anabolic, Levator Ani Muscle): 0.97 | Relative Potency ([6]; Anabolic, Levator Ani Muscle): 1.07 | ED50 ([6]; Androgenic, Prostate): 0.43 ± 0.01 mg/day | Emax (% of Intact Control) ([6]; Androgenic, Prostate): 35.2 ± 0.4 % of Intact Control | Relative Afficacy ([6]; Androgenic, Prostate): 0.29 | Relative Potency ([6]; Androgenic, Prostate): 0.30 | ED50 ([6]; Androgenic, Seminal Vesicle): 0.55 ± 0.02 mg/day | Emax (% of Intact Control) ([6]; Androgenic, Seminal Vesicle): 28.5 ± 0.8 % of Intact Control | Relative Afficacy ([6]; Androgenic, Seminal Vesicle): 0.40 | Relative Potency ([6]; Androgenic, Seminal Vesicle): 0.22

C[C@](O)(COc1ccc(F)cc1)C(=O)Nc1ccc([N+](=O)[O-])c(C(F)(F)F)c1 [GTx-014]
ED50 ([6]; Anabolic, Levator Ani Muscle): 0.44 ± 0.01 mg/day | Emax (% of Intact Control) ([6]; Anabolic, Levator Ani Muscle): 74.9 ± 0.4 % of Intact Control | Relative Afficacy ([6]; Anabolic, Levator Ani Muscle): 0.72 | Relative Potency ([6]; Anabolic, Levator Ani Muscle): 0.34 | ED50 ([6]; Androgenic, Prostate): 0.42 ± 0.04 mg/day | Emax (% of Intact Control) ([6]; Androgenic, Prostate): 14.5 ± 0.7 % of Intact Control | Relative Afficacy ([6]; Androgenic, Prostate): 0.12 | Relative Potency ([6]; Androgenic, Prostate): 0.31 | ED50 ([6]; Androgenic, Seminal Vesicle): 0.38 ± 0.26 mg/day | Emax (% of Intact Control) ([6]; Androgenic, Seminal Vesicle): 12.7 ± 3.1 % of Intact Control | Relative Afficacy ([6]; Androgenic, Seminal Vesicle): 0.18 | Relative Potency ([6]; Androgenic, Seminal Vesicle): 0.32
